No end group written: not given here.
What was measured:
[1] = tested on: A549 cells; test: Monastrol treatment of A549 cells, microscopy and time-lapse video-microscopy; format: cell-based, human; details: most non-mitotic cells
[2] = tested on: A549 cells; test: Nocodazole treatment of A549 cells, immunocytochemistry; format: cell-based, human; details: 10 μM, four hours
Description: We also investigated the endogenous location of KOC1 and KIF11 particles on the ultrafine structure of microtubules bridging individual A549 cells by an immunocytochemical study, using affinity-purified anti-KOC1- or anti-KIF11 for primary antibody and Alexa594-labeled anti-rabbit IgG for secondary antibody (Molecular Probe) and anti-alpha-tubulin-FITC monoclonal antibody. […] Moreover, no particle was found on the residual structure between the cells. […] To further clarify the detailed mechanism by which the KOC1-KIF11 complex transports mRNAs in NSCLC cells, we have searched for other component(s) that might be interacting with KIF11. Immunoprecipitation with anti-KIF11 polyclonal antibody using a lysate of LC319 cells identified a 150-kDa protein, which was later determined to be a dynactin 1 (DCTN1; p150, glued homolog, Drosophila) by MALDI-TOF mass-spectrometric analysis. DCTN1 is the largest subunit of DCTN, which binds to the cytoplasmic motor-protein dynein and activates vesicle transport along microtubules (Holzbaur, E. L. & Tokito, M. K. Genomics 31, 398-399 (1996); Tokito, M. K. et al., Mol. Biol. Cell 7, 1167-1180 (1996)), or binds to KIF11 to probably participate in centrosome separation (Blangy, A. et al., J. Biol. Chem. 272, 19418-19424 (1997)). […]

[3] = target: T1, endogenous GHSR1b and NTSR1 on PC-14 cells (Homo sapiens, UniProt P30989+Q92847); test: Receptor-ligand binding assay on PC-14 cells
T1 construct: endogenous in cells; host or cells: PC-14
Experimental: (§1) To further confirm binding of NMU-25 to the endogenous candidate receptors on the NSCLC cells, we performed receptor-ligand binding assay using the LC319 and PC-14 cells. Briefly, these cells trypsinized were seeded onto 96-well black-wall, clear-bottom microtiter plates 24 hours prior to the assay. The medium was removed and the cells were incubated with Cy5-NMU-25 with a 10-fold excess of unlabeled competitor. The plate was incubated in the dark for 24 hours at 37° C. and was scanned on the 8200 Cellular Detection System (Applied Biosystems). 8200 Analysis Software creates a digitized gray scale image, quantitates the amount of fluorescence bound on the surface of each cell, and enumerates the fluorescent cells.

[4] = target: T2, endogenous GHSR1b and NTSR1 on LC319 cells (Homo sapiens, UniProt P30989+Q92847); test: Receptor-ligand binding assay on LC319 cells
T2 construct: endogenous in cells; host or cells: LC319
Experimental: as §1

[5] = tested on: FOXM1; test: Induction of FOXM1 in LC319 cells, semiquantitative RT-PCR; format: cell-based, human; details: LC319, 100 μM, versus BSA control
Experimental: Expression of the candidate genes was additionally detected by semiquantitative RT-PCR using mRNAs isolated at 72 and 96 hours from LC319 cells treated with 1 μM NMU-25 or BSA at the time point of 0 and 48 hours.
Therefore, we chose FOXM1 for further analysis. To determine specific induction of the FOXM1 by the NMU ligand-receptor signaling, LC319 cells expressing GHSR1b and NTSR1 were cultured in the presence of NMU-25 or BSA (control) at final concentrations of 100 μM in the culture media.

[6] = tested on: GHSR1b; test: Ligand-receptor binding assay, COS-7 cells transfected with GHSR1b; set-up: species or system human
Experimental: (§2) To identify direct binding of NMU-25 to its candidate receptors, GHSR1a, GHSR1b and NTSR1, the following experiments were performed. The entire coding region of each receptor gene was amplified by RT-PCR using primers
(§3) The products were digested with EcoR1 and BainH1 and cloned into appropriate sites of p3XFLAG-CMV10 vector (Sigma-Aldrich Co.). COS-7 cells were transfected with GHSR1b or NTSR1 expression plasmids using FuGENE6, as described above. Transfected COS-7 cells were cultured with 0.5 μM rhodamine-labeled NMU-25 peptide (NMU-25-rhodamine: Phoenix Pharmaceuticals. Inc.) for 12 hours, washed five times in PBS(−), and fixed in 4% paraformaldehyde solution for 60 min at room temperature. Then the cells were incubated with antibodies to FLAG-tagged GHSR1a, GHSR1b, or NTSR1 proteins (Sigma-Aldrich Co.), stained with a goat anti-mouse secondary antibody conjugated to FITC (Cappel) and viewed under laser-confocal microscopy (TCS SP2 AOBS: Leica Microsystems). […]
(§4) To confirm the binding of NMU-25 to the candidate receptors, flow-cytometric analysis was performed using the same series of COS-7 cells. […] The population of cells binding to rhodamine-labeled NMU-25 was determined by flow cytometry.

[7] = tested on: NTSR1; test: Ligand-receptor binding assay, COS-7 cells transfected with NTSR1; set-up: species or system human
Experimental: as §2, §3, §4

[8] = target: T3, GHSR1b/NTSR1 (Homo sapiens, UniProt P30989+Q92847); test: Intracellular Ca2+ mobilization assay in LC319 cells; format: cell-based
T3 construct: endogenous in cells; host or cells: LC319
Experimental: Trypsinized LC319 cells were seeded onto poly-D-lysine coated 384-well black-wall, clear-bottom microtiter plate (1.0×10^4 cells/ml) 24 hours prior to assay. Cells were loaded for 1 hour with […] Fluo-4-AM fluorescent indicator dye in assay buffer (Hank's balanced salts solution, 20 mM HEPES, 2.5 mM probenecid), washed three times with assay buffer, and then returned to the incubator for 10 min before assay on a fluorometric imaging plate reader (FLIPR, Molecular Devices). Maximum change in fluorescence over base line was used to determine the response of the cells to the NMU-25 peptides stimulation.

[9] = tested on: COS-7 cells; test: Growth of COS-7 cells with NMU in the medium; format: cell-based; details: addition into the medium, dose-dependent
[10] = COS-7, NMU-25-rhodamine 0.5 μM, 12 hours

T3 sequence (Q92847 1-289 isoform Q92847-2): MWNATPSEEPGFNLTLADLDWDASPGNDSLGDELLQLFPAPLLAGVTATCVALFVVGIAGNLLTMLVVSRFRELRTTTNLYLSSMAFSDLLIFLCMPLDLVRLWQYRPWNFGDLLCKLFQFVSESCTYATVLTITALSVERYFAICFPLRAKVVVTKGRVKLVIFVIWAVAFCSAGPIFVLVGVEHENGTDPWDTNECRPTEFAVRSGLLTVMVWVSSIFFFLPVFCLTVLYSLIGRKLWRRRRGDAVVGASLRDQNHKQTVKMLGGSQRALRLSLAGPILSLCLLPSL
T3 sequence (P30989 whole entry): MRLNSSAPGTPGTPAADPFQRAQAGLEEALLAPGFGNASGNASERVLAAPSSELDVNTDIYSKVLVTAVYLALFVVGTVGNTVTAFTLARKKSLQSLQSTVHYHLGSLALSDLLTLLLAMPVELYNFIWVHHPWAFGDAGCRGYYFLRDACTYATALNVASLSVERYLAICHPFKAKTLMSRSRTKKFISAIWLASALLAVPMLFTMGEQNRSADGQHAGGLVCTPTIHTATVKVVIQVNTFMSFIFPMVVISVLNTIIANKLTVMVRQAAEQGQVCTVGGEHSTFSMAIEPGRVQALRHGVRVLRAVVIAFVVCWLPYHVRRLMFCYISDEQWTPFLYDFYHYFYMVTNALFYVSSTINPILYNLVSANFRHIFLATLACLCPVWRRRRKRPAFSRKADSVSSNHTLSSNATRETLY

For CCOC(=O)C1=C(C)NC(=S)NC1c1cccc(O)c1 (centres unmarked) [monastrol], the “time to loss of protrusion and connection to adjacent cells, non-mitotic cells” value [1] was no more than 2 h.

In the case of COC(=O)Nc1nc2ccc(C(=O)c3cccs3)cc2[nH]1 [nocodazole], the “effect on endogenous KOC1, KIF11 and microtubules” value [2] is reported as “collapse and aggregation of endogenous KOC1 and KIF11, along with the depolymerization of microtubules in the cytoplasm”.

For “Cy5-labeled NMU-25: Cy5-labeled NMU-25 peptide (FRVDEEFQSPFASQSRGYFLFRPRN; ends and bridges not checked; also: Cy5-labeled, site not given here)”, the “binding to the cell surface” value [3] was “detected binding” and the “binding to the cell surface” value [4] was “detected binding”.

“NMU-25: NMU-25 peptide, ligand neuromedin U (FRVDEEFQSPFASQSRGYFLFRPRN)” was tested, and the “expression of FOXM1” value [5] was “higher expression of FOXM1”, the “co-localization with FLAG-tagged GHSR1b (confocal microscopy)” value [6, 10] was “located together on the cell membrane” and the “co-localization with FLAG-tagged NTSR1 (confocal microscopy)” value [7, 10] was “located together on the cell membrane”. The “intracellular Ca2+ flux / mobilization” value [8] was “but not Ca^2+ flux”.

For “NMU: neuropeptide neuromedin U added into the medium (FRVDEEFQSPFASQSRGYFLFRPRN)”, the “growth of COS-7 cells” value [9] was “promoted the growth”.

With “rhodamine-labeled NMU-25: rhodamine-labeled NMU-25 peptide (Phoenix Pharmaceuticals) (FRVDEEFQSPFASQSRGYFLFRPRN; ends and bridges not checked; also: rhodamine-labeled, site not given here)” the “binding to surface of COS-7 cells expressing GHSR1b (flow cytometry)” value ([6]; dose dependent) was “binding” and the “binding to surface of COS-7 cells expressing NTSR1 (flow cytometry)” value ([7]; dose dependent) was “binding”.

Reference: patent US7972772B2, “KIF11 and method for diagnosing non-small cell lung cancer” (Oncotherapy Science, Inc., priority 2004, dated 2011)
